Experimental data reported in publication PMC6213633, “Induction of ATP Release, PPIX Transport, and Cholesterol Uptake by Human Red Blood Cells Using a New Family of TSPO Ligands” (International Journal of Molecular Sciences, 2018).
Like-named read-outs stand apart in the source and are kept apart here.

Tests used:
[1] = Hemolysis induced by TSPO ligands (Hb release, absorption at 405 nm); type: cell-based; details: human, Hb released, mean ± SEM, N = 4, read-out: Hemolysis induced by TSPO ligands treatment
Protocol: Hemolysis leads to hemoglobin (Hb) release into the extracellular milieu, where the Hb content can be quantified by monitoring light absorption, at 405 nm. Using this procedure, we previously observed that the amount of Hb was proportional to the amount of lysed RBCs. The Hb content of the samples was determined as described above. Then, the amount of lytic ATP contributing to [ATPe] was estimated from the total amount of hemolysis cells (calculated as described above) and the intracellular ATP content of the RBCs, which under the experimental conditions was 148 pmol ATP per 10^6 RBCs, as previously reported by our group.

[2] = system: healthy and P. falciparum-infected RBCs; assay: TopFluor Cholesterol uptake by RBCs (flow cytometry); type: cell-based, human; details: 50 µM ligand; for effect on cholesterol uptake: healthy and infected RBCs
Protocol: Figure 5 Cholesterol uptake induced by TSPO ligands. Healthy (A) or infected red blood cells, at 2 to 5% parasitemia (B) were incubated in the presence of TopFluor Cholesterol and 50 µM of TSPO ligands. Cholesterol uptake was assessed at different time points by flow cytometry. MFI values were normalized to vehicle treated cells. Data are presented as mean ± SEM; N = 4. Differences between each ligand and control condition (vehicle) were considered significant when * p < 0.05.
Cholesterol uptake was measured using TopFluor Cholesterol and 50 µM of TSPO ligands. Cholesterol uptake was assessed at different time points by flow cytometry. Mean Fluorescent Intensity (MFI) values were normalized to vehicle treated cells.
Fluorescence measurements in all samples of the P. falciparum’s viability, ZnPPIX uptake, cholesterol uptake, and ROS accumulation assays, were performed with a FACSCanto (BD Biosciences, Rungis, France) and further analyzed with Flowjo-3 software. Infected-RBCs were distinguished from non-infected ones contained in the same culture by TOPRO-3 signaling (1/2, 500), with the negative level established with the same non-infected RBCs used for parasite culture. ZnPPIX (Ex.: 488 nm, Em.: 585/42 nm), TopFluor Cholesterol (Ex.: 495 nm, Em.: 507 nm) and DCFDA (Ex.: 488 nm, Em.: 530/30 nm) levels were measured in both the infected and non-infected RBC populations, results were normalized to the corresponding solvent for each ligand.

[3] = system: P. falciparum strain FCR3; assay: P. falciparum growth inhibition (flow cytometry of parasitemia); type: cell-based, Plasmodium falciparum; details: 10 and 50 µM
Protocol: Figure 1 TSPO ligands inhibited the P. falciparum growth. Infected RBCs were diluted to 1% parasitemia, and maintained at 1–5%, by dilution, for […]. Percentages of growth-inhibition were obtained, after two parasite cycles, by the flow cytometry analysis of parasitemia, and normalized to the control condition (solvent-treated cells). Data are presented as the mean ± SEM; N = 4. Differences between the control condition and the treatment were considered significant at ** p < 0.01; *** p < 001.
P. falciparum strain FCR3 culture was performed in RPMI 1640 medium containing 10% Albumax, at 5% hematocrit, in a 5% O2, 3% CO2 atmosphere. […] Parasitemia was determined after 48 h and 96 h (after one or two complete parasite’s cycles, respectively) by flow cytometry (FACS), as previously described.
(§1) Fluorescence measurements in all samples of the P. falciparum’s viability, ZnPPIX uptake, cholesterol uptake, and ROS accumulation assays, were performed with a FACSCanto (BD Biosciences, Rungis, France) and further analyzed with Flowjo-3 software. […] ZnPPIX (Ex.: 488 nm, Em.: 585/42 nm), TopFluor Cholesterol (Ex.: 495 nm, Em.: 507 nm) and DCFDA (Ex.: 488 nm, Em.: 530/30 nm) levels were measured in both the infected and non-infected RBC populations, results were normalized to the corresponding solvent for each ligand.

[4] = system: P. falciparum-infected RBCs; assay: Sorbitol-induced hemolysis in infected RBCs; type: cell-based, human; details: 50 µM ligand
Protocol: Figure 4 Sorbitol-induced hemolysis is modulated by the TSPO ligands in infected red blood cells. Infected RBCs at 2 to 5 % parasitemia were washed three times in a culture medium, without serum, and resuspended at 50% hematocrit in a media containing 10 μM (A) or 50 μM (B) TSPO ligands. Hemolysis was quantified at several time-points, by absorption at 540 nm wavelength. Data are presented as mean ± SEM; N = 4. Differences between each ligand and control condition (vehicle) were considered significant when p < 0.01.
Sorbitol hemolysis assays were carried as previously described using hemoglobin release to estimate lysis time. Monoexponential functions were fitted to the data from the sorbitol-induced hemolysis (%) (Figure 4), at different times of exposure to the ligands. Half time values (t1/2) for hemolysis were then calculated as t1/2= ln (2)/k, where k is the rate coefficient of the exponential curve.

human red blood cells [5] = system: human red blood cells; parameters: method as in PMID 30061676; details: cited from earlier work
[6] = target: T1, TSPO2-expressing RBC membranes (Homo sapiens, UniProt Q5TGU0); assay: (3H) PK 11195 displacement binding on RBCs; parameters: endogenous in cells; host or cells: human red blood cells purified from fresh blood of healthy volunteers
T1 sequence (Q5TGU0 1-170): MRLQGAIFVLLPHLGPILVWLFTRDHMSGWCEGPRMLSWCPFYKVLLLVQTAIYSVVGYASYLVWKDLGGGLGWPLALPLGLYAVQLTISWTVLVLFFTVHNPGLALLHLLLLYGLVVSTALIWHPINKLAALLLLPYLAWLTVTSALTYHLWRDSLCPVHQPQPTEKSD
Protocol: The affinity of the ligands for the RBC membranes was assessed by typical displacement experiments. RBCs were exposed to 10 nM (^3H) PK 11195 and increasing concentrations of non-radiolabeled TSPO ligands.
RBCs were washed twice in phosphate buffer saline (PBS) (pH 7.4). Samples were incubated in a final incubation volume of 0.3 mL, in the presence of (^3H) PK 11195 (Perkin Elmer, Courtaboeuf, France; 83.5 Ci/mmol) and increasing concentrations of unlabeled TSPO ligands, at room temperature (RT). After 30 min incubation, assays were stopped by filtration through Whatman GF/C filters. Radioactivity trapped on the filters was determined by liquid scintillation counting (Tri-Carb 2800TR, Perkin-Elmer, Courtaboeuf, France).

human red blood cells [7] = assay: ATP release from RBCs (luciferase luminometry); type: cell-based; details: for induction of ATP release (comparison between ligands): 10 or 30 µM ligand, 37 °C, 10% hematocrit; for ligand-induced ATP release in presence of VDAC blocker Bcl-XLBH4: Bcl-XLBH4 10 µM; for ligand-induced ATP release in presence of pannexin-1 inhibitors: carbonexolone 10 µM or probenecid 10 µM
Protocol: Figure 6 TSPO ligand-induced ATP release. ATP release from human red blood cells was measured at 37 °C, 10% Hematocrit, as described in material and methods. Values are the ratio between extracellular ATP (ATPe) levels after and before the addition of TSPO ligands. […] Results are expressed as means ± SEM and considered different from basal (vehicle, unstimulated) values when * p < 0.05; ** p < 0.01 or from those incubated in the presence of Bcl-XLBH4 when ^# p < 0.05 and ^## p < 0.01; N = 7.
Extracellular ATP (ATPe) concentration was measured by quantitative luminometry using firefly luciferase, which catalyzes the oxidation of luciferin in the presence of ATP to produce light as previously described. The ATPe concentration was determined at discrete times (offline). Changes in [ATPe] over time were used to estimate ATP release from RBCs.
10 µL of RBCs at 10% hematocrit were incubated for 10 min, at 37 °C, in the presence of the ligand, or of an equal vehicle volume, with 30 µL of MKB medium. At discrete times, samples were centrifuged at 450× g for 3 min, at RT. Paired samples were taken to assess ATPe and hemolysis. The supernatants were stored at −20 °C, prior to the analysis. Then, 4.5 µL of the supernatant samples were added to 45 µL of the luminometry mix (MKB medium containing 0.01 µM luciferase, 0.2 mM luciferin, and 0.1 mg/mL of Coenzyme A) and placed in the assay chamber of the luminometer to determine the light intensity. At the end of the incubations, the time course of light emission was transformed into the ATPe concentration versus time using a calibration curve, with ATP stock solutions ranging from 1 to 50 µM. The results were expressed as ΔATPe (i.e., the ratio of [ATPe] before and after the addition of a given stimulus).
The increase in [ATPe] due to regulated ATP release was calculated by taking the experimentally-measured [ATPe] and subtracting the estimated [ATPe] due to hemolysis. Except where otherwise stated, the results of ATP release experiments reflected the ATP release from non-lytic origin.

[8] = system: TSPO1-enriched rat heart microsomes; parameters: method as in doi:10.1002/slct.201701565; details: cited from earlier work
[9] = system: healthy and P. falciparum-infected RBCs; assay: ZnPPIX uptake in healthy and infected RBCs (flow cytometry); type: cell-based, human; details: 20 µM ZnPPIX, 50 µM ligand
Protocol: Figure 2 ZnPPIX uptake in healthy and infected RBCs induced by TSPO ligands. Healthy RBC (A) and infected RBC (B) at 2 to 5% parasitemia were incubated in the presence of 20 µM ZnPPIX and 50 µM TSPO ligands, and the uptake of ZnPPIX was assessed at different time points by flow cytometry. MFI values were normalized to background levels for the control and the ligand-treated conditions. Data are presented as the mean ± SEM; N = 7. Statistical analyses were performed for each ligand and the control condition. Differences were considered significant when * p < 0.05; ** p < 0.01; *** p < 0.001.
P. falciparum cultures were incubated at 2–5% parasitemia (synchronized cultures, ring and trophozoite stages) in 200 µL of RPMI 10% Albumax containing 20 µM ZnPPIX. […] Cultures were kept at 37 °C, in the dark, for 3 to 18 h and further analyzed by FACS.
as §1

[10] = displacement of 10 nM (3H) PK 11195, mean ± SEM, N = 3, read-out: IC50, TSPO ligands' affinity for RBC membranes

Compound | hemolysis ([1]; red blood cells (RBCs)) [%] | effect on cholesterol uptake [2] | hemolysis [1] [%] | t1/2 of sorbitol-induced hemolysis relative to control samples [4] | non-lytic ATP efflux from RBCs (human red blood cells [5]) | induction of ATP release (comparison between ligands) (human red blood cells [7]) | ligand-induced ATP release in presence of VDAC blocker Bcl-XLBH4 (human red blood cells [7]) | ligand-induced ATP release in presence of pannexin-1 inhibitors (human red blood cells [7]) | IC50 [6, 10] [nM] | ZnPPIX uptake increase (effect in words) [9] | further results
CN(C)C(=O)Cc1nn(-c2ccccc2)c(=O)c2c1c1ccc(Cl)cc1n2C [SSR-180,575, reference compound] | 0.7 ± 0.08 | did not alter cholesterol uptake |  |  |  |  |  |  |  |  | anti-plasmodium activity (comparison between ligands) [3]: highest anti-plasmodium activity trend
CCC(C)N(C)C(=O)c1cc2ccccc2c(-c2ccccc2Cl)n1 (stereo not drawn) [PK 11195, reference compound] |  |  | 0.6 ± 0.06 | three-fold higher |  |  |  |  |  |  | 
CN1C(=O)CN=C(c2ccc(Cl)cc2)c2cc(Cl)ccc21 [Ro5-4864, reference compound] |  | did not alter cholesterol uptake | 0.68 ± 0.16 | eight-fold higher | triggered non-lytic ATP efflux | a bit lower | significantly inhibited | not affected |  |  | IC50 [6]: 1500 ± 600 nM
CCCN(CCC)C(=O)Cn1c(=O)n2cc(-c3ccccc3)nc2c2ccccc21 [NCS1026, N,N-dipropyl-2-(5-oxo-2-phenylimidazo[1-c]quinazolin-6(5H)-yl)acetamide] | 0.52 ± 0.06 |  |  | three-fold higher |  |  |  |  | 280 ± 60 | no significant effect | IC50 [8]: 10 nM; inhibition of cholesterol uptake ([2]; 1 h of incubation): 40%; inhibition of cholesterol uptake ([2]; 5 h of incubation): 20%
CCN(CC)C(=O)Cn1c(=O)n2cc(-c3ccco3)nc2c2ccccc21 [NCS1018, N,N-Diethyl-2-(2-(furan-2-yl)-5-oxomidazo[1-c]quinazolin-6(5H)-yl)acetamide] | 0.72 ± 0.06 | did not alter cholesterol uptake |  | eight-fold higher | triggered non-lytic ATP efflux | most efficient in inducing ATP release | significantly inhibited | not affected | 590 ± 70 | no significant effect | 
CC(C)CCC[C@@H](C)[C@H]1CC[C@H]2[C@@H]3CCC4=CC(=NO)CC[C@]4(C)[C@H]3CC[C@]12C [TRO19622] |  |  |  |  | triggered non-lytic ATP efflux |  |  |  |  |  | 
